Measured values taken from patent EP1166784B1, “INHIBITION OF VASCULAR RESTENOSIS AFTER ANGIOPLASTY” (Meiji Seika Kaisha, Ltd., priority 1999, dated 2000).

Columns and labels:
[1] = system: balloon-injured site of the abdominal aorta blood vessel; assay: PDT treatment in rabbit model with arterial injury (balloon catheter), pathological study (Example 1); format: in vivo; conditions: 2.5 mg/kg i.v., laser 664 nm, 50 or 100 J/cm^2, optical fiber in inflated 2F balloon catheter
Procedure: Mono-L-aspartylchlorin e6 tetrasodium salt (NPe6) was intravenously administered at a dose of 2.5 mg/kg to a rabbit weighing about 4 kg. A commercially available 2F balloon catheter was immediately then inserted through the femoral artery into the abdominal aorta of rabbit. Thereafter, there are repeated operations of drawing out from the blood vessel the balloon catheter with the inflated balloon, inserting the balloon catheter again into the blood vessel, and drawing out the balloon catheter with the inflated balloon, whereby a rabbit model with an arterial injury was produced. This method for producing the rabbit model having the arterial injury at the blood vessel inner wall was in accordance with the method of Hsiang et al. (see Ann. Vasc. Surg., Vol.9, p.80-86, 1995). At the end of 3 hours after the administration of NPe6, an optical fiber for irradiation of laser (made of an acrylic polymer filament having an external diameter of 0.5 mm and provided with the emitter part of 15mm in length) was inserted into the hollow hole of the 2F balloon catheter which had been inserted in and kept remained at the balloon-injured site of the abdominal aorta blood vessel. The balloon of the catheter was then inflated. Laser light of 664 nm wavelength was passed into and transmitted through the optical fiber to make the laser light to irradiate the abdominal artery at the balloon-injured site, and thereby to carry out the PDT treatment of said site at a laser fluence of 50 or 100 J/cm^2. The laser (of the wavelength of 664 nm) used was emitted from a laser-generating source of semi-conductor type known for PDT. At the respective ends of four days, two weeks and four weeks after the above PDT treatment so made, the site having received the PDT treatment was pathologically studied.

[2] = system: intimal thickening induced at the balloon-intervented and injured site of blood vessel; assay: Suppressive effect of PDT treatment on intimal thickening in rabbit model with arterial injury, image analysis of neo-intima and tunica media areas (Example 2); format: in vivo; conditions: 2.5 mg/kg i.v., laser 664 nm 3 hours after administration, two weeks after PDT; for Inhibition rate (%): versus untreated group
Procedure: Mono-L-aspartylchlorin e6 tetrasodium salt was intravenously administered at a dose of 2.5 mg/kg to three rabbits each weighing about 4 kg. […] The neo-intima (9) had newly been produced from the inner side of the tunica media (8) due to the injury as induced by the balloon-intervention. At the end of three hours after the administration of mono-L-aspartylchlorin e6 tetrasodium salt, a device comprising an optical fiber for the irradiation of laser was inserted in the blood vessel of rabbit having the intimal thickening, to arrive at the balloon-injured site of the blood vessel. In order to estimate in comparison the achievable suppressive effects of the PDT treatments against the vascular restenosis, the above test procedures were conducted with employing two different types of the laser-irradiating devices comprising the optical fiber for the irradiation of laser, a first one type of which two different devices was such a laser-irradiating device that comprised an optical fiber as integrated with a balloon catheter and that is shown in Figure 1 of the appended drawing. The other type of the laser-irradiating device employed was comprising simply the conventional type of cylindrical optical fiber. In the tests, either one of these two different types of the laser-irradiating devices containing an optical fiber was inserted into the abdominal aorta under test. Under roentgenoscopy, an X-ray-shielding marker which had been provided in the laser-irradiating optical fiber so inserted was observed as a guide. This guide was used so that the position of the optical fiber device as inserted could be adjusted so as to be located in a position optimal to make the laser to irradiate selectively just the balloon-injured site of the abdominal aorta under test. Then, the irradiation of the laser through said optical fiber was carried out at a laser fluence of 50 or 100 J/cm^2 by means of a semiconductor generator for generating the laser of a wavelength of 664 nm. […] From the photographies of showing the traverse cross-section of histopathologically stained test specimens as collected from the above PDT-treated site of the blood vessel, the area of the tunica media and the area of the neo-intima of the test specimens of the blood vessel under test were measured by an image analyzer. The ratio of the area of the tunica media to the area of the neo-intima of the blood vessel specimens was calculated. […]

[3] = conventional type of cylindrical optical fiber device, 100 J/cm^2
[4] = optical fiber device integrated with the balloon catheter, 50 J/cm^2

Which results are given for `C=Cc1c(C)c2cc3nc(c(CC(=O)N[C@@H](CC(=O)[O-])C(=O)[O-])c4[nH]c(cc5nc(cc1[nH]2)C(C)=C5CC)c(C)c4C(=O)[O-])[C@@H](CCC(=O)[O-])[C@@H]3C.[Na+].[Na+].[Na+].[Na+]` [NPe6, Mono-L-aspartylchlorin e6 tetrasodium salt]?
injuries in the regions of the blood vessel participating in the entire construction of the blood vessel (pathological findings) ([1]; 2 and 4 weeks after PDT): no injuries were developed; intimal thickening as produced by the vascular neo-intima formed at the PDT-treated site (pathological findings) ([1]; 2 and 4 weeks after PDT): inhibited; cells of the tunica media of the blood vessel at the PDT-treated site (pathological findings) ([1]; four days after PDT): destroyed in a broad region of ranging from the inner wall side towards the outer wall side of the blood vessel; Ratio of area of neointima to area of tunica media in blood vessel [2, 3]: 0.87±0.37; Inhibition rate (%) [2, 3]: 28.7%; Ratio of area of neointima to area of tunica media in blood vessel [2, 4]: 0.68±0.21; Inhibition rate (%) [2, 4]: 44.3%
